Read-outs that look alike come from different tables or passages of the source. Blank lines part the entries; values can stand above or below the molecule they belong to.
Tests used:
[1] = Oral bioavailability (%F) following oral vs intravenous administration in rats; format: in vivo, male Sprague-Dawley rats; details: rat; for bioavailability: male, Sprague-Dawley, plasma, po
Procedure: These compounds were administered intravenously and orally to compare the extent of absorption by the oral route to the intravenous route and evaluate their ability to inhibit platelet aggregation in vivo. The following brief protocol describes the experiment methodology.
While anesthetized by an inhaled anesthetic, male Sprague-Dawley rats were surgically cannulated in the jugular vein for blood sample collection in order to assess systemic exposure of the compound after oral or intravenous administration and platelet aggregation. For the oral studies, compounds were administered as suspensions of the free acid or sodium salt forms, or as solutions of the sodium salt forms. Animals were allowed 48 hours to recover prior to dose administration.
A blood samples was taken immediately prior to compound administration. This sample was used to assess the baseline platelet aggregation and potential drug interference in the LC/MS/MS analysis. Compound was administered by either oral gavage or tail vein and blood samples were withdrawn for plasma analysis at up to 12 time points ranging from 5 min to 24 hours following compound administration. LC/MS/MS was used to measure the amount of compound in the plasma after both routes of administration and the plasma exposure was compared between the oral and IV routes (%F). %F is the % of the administered dose that is absorbed after oral administration. […] The in vivo platelet aggregation data that was acquired at similar time points was then compared to the plasma concentration and a calculation of the concentration needed to inhibit platelet aggregation was made.
The bioavailability of certain compounds of the present invention was determined following oral administration in rats, according to the protocol of Example 5. The compounds were administered as either a suspension of the free acid forms, a suspension of the sodium salt forms, or as a solution of the sodium salt forms.

[2] = system: washed human platelets; experiment: Inhibition of ADP-induced platelet aggregation in washed human platelets; format: cell-based; details: for IC50: ADP agonist challenge typically 1-5 μM, average of two experiments or more; for % inhibition of ADP-induced platelet aggregation at fixed concentration: antagonist at 0.3 μM, ADP typically 1-5 μM
Procedure: Isolation of Platelets: Human blood is obtained from informed healthy adult volunteers. Blood is collected into one-sixth volume of acid/citrate/dextrose (ACD) buffer (85 mM sodium citrate, 65 mM citric acid, and 110 mM glucose). Collected blood is placed in a water bath at 37° C. for 30 minutes. Blood is then centrifuged at 275×g for 16 minutes at room temperature and the platelet-rich plasma is removed and centrifuged at 2200×g for 13 minutes at room temperature. The platelet pellet is resuspended in 40 mL of HEPES-buffered Tyrode's solution (137 mM NaCl, 2.7 mM KCl, 1 mM MgCl2, 2 mM CaCl2, 12 mM NaHCO3, 0.36 mM NaH2PO4, 5.5 mM glucose, 5 mM HEPES pH 7.4, 0.35% bovine serum albumin or 0.35% human serum albumin) containing 10 U/mL heparin and 5 μM (final concentration) prostaglandin I2 (PGI2). The platelet suspension is incubated in a 37° C. water bath for 10 minutes and then 5 μM (final conc.) PGI2 is added just before centrifugation at 1900×g for 8 minutes. The resulting pellet is resuspended in 40 mL of HEPES-buffered Tyrode's solution containing 5 μM (final concentration) PGI2 and then is incubated for 10 minutes in a 37° C. water bath. A small aliquot (500 μL) of the platelet suspension is removed for platelet counting. Prior to centrifugation 5 μM (final concentration) PGI2 is added to the suspension and then the suspension is centrifuged at 1900×g for 8 minutes. The pellet is resuspended at a density of 5×10^8 cells/mL in HEPES-buffered Tyrode's solution containing 0.05 U/mL apyrase. Aggregation Studies: ADP-induced platelet aggregation is determined by measuring the transmission of light through a 0.5 ml suspension of stirred (1000 rpm) washed platelets in a lumi-aggregometer at 37° C. (Chrono-Log Corp. Havertown, Pa.). The baseline of the instrument is set using 0.5 ml of Hepes-buffered Tyrode's solution. Prior to aggregation measurements, the platelet suspension is supplemented with 1 mg/ml fibrinogen. Platelet aggregation is initiated by the addition of indicated concentrations of ADP or other agonists, and the light transmission is continuously recorded for at least 8 min. When inhibitors of platelet aggregation are tested, platelets are incubated for 2 min in the presence of indicated concentrations of inhibitor before addition of ADP or other agonists, and the response is recorded for at least 8 min. The potency of agonists and inhibitors of platelet aggregation is calculated from both the rate of aggregation and the maximal extent of aggregation obtained for each determination by fitting the data to a four-parameter logistic equation using the GraphPad software package (GraphPad Corp. San Diego, Calif.).
IC50 values represent the concentration of antagonist necessary to inhibit by 50% the aggregation elicited by a given concentration of ADP.
The agonist challenge (ADP) was typically in the range of 1-5 μM. Data are presented in μM and are from the average of two experiments or more.

[3] = administered as solution of the sodium salt form, read-out: % F, salt solution
[4] = administered as suspension of the free acid form, read-out: % F, free acid suspension
[5] = Homo sapiens, Platelet, read-out: PLATELET DATA IC50 Washed Platelets, washed human platelets
[6] = read-out: PLATELET DATA IC50 Washed Platelets, washed human platelets
[7] = administered as suspension of the sodium salt form, read-out: % F, salt suspension

bioavailability [1, 3]: ~39%
bioavailability [1, 4]: 8 to 13%
bioavailability following oral administration (in words) [1]: high bioavailability
% F, free acid suspension ([1]; administered as suspension of the free acid form): 8.7-13.1%
IC50 [2, 5]: 319 nM
SMILES: CCNC(=O)Nc1ncnc2c1ncn2C1OC(COc2ccccc2C(=O)O)C2O[C@H](/C=C/c3ccccc3)OC21 (some centres unmarked) [Compound 1]

IC50 [2, 5]: 279 nM
SMILES: CCNC(=O)Nc1ncnc2c1ncn2C1OC(COc2c(OC)cccc2C(=O)O)C2O[C@H](/C=C/c3ccccc3)OC21 (some centres unmarked) [Compound 2]

IC50 [2, 5]: 404 nM
SMILES: CCNC(=O)Nc1ncnc2c1ncn2C1OC(COc2cc(OC)ccc2C(=O)O)C2O[C@H](/C=C/c3ccccc3)OC21 (some centres unmarked) [Compound 3]

IC50 [2, 5]: 105 nM
SMILES: CCNC(=O)Nc1ncnc2c1ncn2C1OC(COc2ccc(F)cc2C(=O)O)C2O[C@H](/C=C/c3ccccc3)OC21 (some centres unmarked) [Compound 4]

IC50 [2, 5]: 536 nM
SMILES: CCNC(=O)Nc1ncnc2c1ncn2C1OC(COc2ccc(C)cc2C(=O)O)C2O[C@H](/C=C/c3ccccc3)OC21 (some centres unmarked) [Compound 5]

IC50 [2, 5]: 297 nM
SMILES: CCNC(=O)Nc1ncnc2c1ncn2C1OC(COc2ccccc2CC(=O)O)C2O[C@H](/C=C/c3ccccc3)OC21 (some centres unmarked) [Compound 6]

IC50 [2, 5]: 385 nM
SMILES: CCNC(=O)Nc1ncnc2c1ncn2C1OC(COc2cc(F)ccc2C(=O)O)C2O[C@H](/C=C/c3ccccc3)OC21 (some centres unmarked) [Compound 7]

IC50 [2, 5]: 134 nM
SMILES: CCNC(=O)Nc1ncnc2c1ncn2C1OC(COc2cccc(F)c2C(=O)O)C2OC(/C=C/c3ccccc3)OC21 (centres unmarked) [Compound 8]

IC50 [2, 5]: 744 nM
SMILES: CCNC(=O)Nc1ncnc2c1ncn2C1OC(COc2ccc(OC)cc2C(=O)O)C2O[C@H](/C=C/c3ccccc3)OC21 (some centres unmarked) [Compound 9]

IC50 [2, 5]: 570 nM
SMILES: CCNC(=O)Nc1ncnc2c1ncn2C1OC(COc2ccccc2CC(=O)O)C2OC(c3ccc(F)cc3)OC21 (centres unmarked) [Compound 11]

IC50 [2, 5]: 200 nM
SMILES: CCNC(=O)Nc1ncnc2c1ncn2C1OC(COc2ccccc2C(=O)O)C2O[C@H](c3ccc(F)cc3)OC21 (some centres unmarked) [Compound 12]

IC50 [2, 5]: < 100 nM
IC50 [2, 6]: 89 nM
SMILES: CCNC(=O)Nc1ncnc2c1ncn2C1OC(COc2ccc(F)cc2C(=O)O)C2O[C@H](c3ccc(F)cc3)OC21 (some centres unmarked) [Compound 13]

bioavailability [1, 3]: ~44%
bioavailability [1, 7]: 21.5 to 22.1%
bioavailability following oral administration (in words) [1]: high bioavailability
IC50 [2, 5]: < 100 nM
IC50 [2, 6]: 96 nM
SMILES: CCNC(=O)Nc1ncnc2c1ncn2C1OC(COc2cc(OC)ccc2C(=O)O)C2OC(c3ccc(F)cc3)OC21 (centres unmarked) [Compound 14, 2-[6-[6-(3-Ethyl-ureido)-purin-9-yl]-2-(4-fluoro-phenyl)-tetrahydro-furo[3,4-d][1,3]dioxol-4-ylmethoxyl]-4-methoxy-benzoic acid]

bioavailability [1, 3]: ~53%
bioavailability [1, 4]: 14.3 to 14.6%
bioavailability [1, 7]: 29.5 to 29.9%
bioavailability following oral administration (in words) [1]: high bioavailability
% F, salt solution ([1]; administered as solution of the sodium salt form): 52.5-53.4%
IC50 [2, 5]: 190 nM
SMILES: CCCNC(=O)Nc1ncnc2c1ncn2C1OC(COc2ccccc2C(=O)O)C2O[C@H](c3ccc(F)cc3)OC21 (some centres unmarked) [Compound 15]

IC50 [2, 5]: < 100 nM
IC50 [2, 6]: 62 nM
SMILES: CCCCNC(=O)Nc1ncnc2c1ncn2C1OC(COc2c(OC)cccc2C(=O)O)C2O[C@H](c3ccc(F)cc3)OC21 (some centres unmarked) [Compound 19]

IC50 [2, 5]: < 100 nM
IC50 [2, 6]: 92 nM
SMILES: CCCNC(=O)Nc1ncnc2c1ncn2C1OC(COc2cc(OC)ccc2C(=O)O)C2O[C@H](c3ccc(F)cc3)OC21 (some centres unmarked) [Compound 20]

IC50 [2, 5]: < 100 nM
IC50 [2, 6]: 87 nM
SMILES: CCCCNC(=O)Nc1ncnc2c1ncn2C1OC(COc2cc(OC)ccc2C(=O)O)C2O[C@H](c3ccc(F)cc3)OC21 (some centres unmarked) [Compound 21]

IC50 [2, 5]: < 100 nM
IC50 [2, 6]: 99 nM
SMILES: COc1ccc(C(=O)O)c(OCC2OC(n3cnc4c(NC(=O)NC5CC5)ncnc43)C3O[C@@H](c4ccc(F)cc4)OC23)c1 (some centres unmarked) [Compound 22]

IC50 [2, 5]: < 100 nM
IC50 [2, 6]: 99 nM
SMILES: COc1ccc(C(=O)O)c(OCC2OC(n3cnc4c(NC(=O)NCC5CC5)ncnc43)C3O[C@@H](c4ccc(F)cc4)OC23)c1 (some centres unmarked) [Compound 23]

SMILES: CCNC(=O)Nc1ncnc2c1ncn2C1OC(COc2c(F)cccc2C(=O)O)C2O[C@H](c3ccc(F)cc3)OC21 (some centres unmarked) [Compound 25]
% inhibition of ADP-induced platelet aggregation at fixed concentration ([2]; washed human platelets): 46% inh. @ 0.3 μM

SMILES: CCCNC(=O)Nc1ncnc2c1ncn2C1OC(COc2cc(F)ccc2C(=O)O)C2O[C@H](c3ccc(F)cc3)OC21 (some centres unmarked) [Compound 28]
% inhibition of ADP-induced platelet aggregation at fixed concentration ([2]; washed human platelets): 64% inh. @ 0.3 μM

SMILES: CCCNC(=O)Nc1ncnc2c1ncn2C1OC(COc2cccc(F)c2C(=O)O)C2O[C@H](c3ccc(F)cc3)OC21 (some centres unmarked) [Compound 30]
% inhibition of ADP-induced platelet aggregation at fixed concentration ([2]; washed human platelets): 56% inh. @ 0.3 μM

SMILES: COc1cccc(C(=O)O)c1OCC1OC(n2cnc3c(NC(=O)NC4CC4)ncnc32)C2O[C@@H](c3ccc(F)cc3)OC12 (some centres unmarked) [Compound 33]
% inhibition of ADP-induced platelet aggregation at fixed concentration ([2]; washed human platelets): 56% inh. @ 0.3 μM

SMILES: CCNC(=O)Nc1ncnc2c1ncn2C1OC(COc2ccc(OC)cc2C(=O)O)C2O[C@H](c3ccc(F)cc3)OC21 (some centres unmarked) [Compound 34]
% inhibition of ADP-induced platelet aggregation at fixed concentration ([2]; washed human platelets): 52% inh. @ 0.3 μM

SMILES: O=C(Nc1ncnc2c1ncn2C1OC(COc2cc(F)ccc2C(=O)O)C2O[C@H](c3ccc(F)cc3)OC21)NC1CC1 (some centres unmarked) [Compound 35]
% inhibition of ADP-induced platelet aggregation at fixed concentration ([2]; washed human platelets): 61% inh. @ 0.3 μM

Source: US7504497B2, “Orally bioavailable compounds and methods for inhibiting platelet aggregation” (Inspire Pharmaceuticals, Inc., priority 2005, dated 2009)
